Activity calls are given as the source filed them. The rule behind the calls is not given here.
Legend:
Dipeptidyl peptidase 4 [1] = target: T1, Dipeptidyl peptidase 4 (Homo sapiens, UniProt P27487); test: Inhibition of DPP4 in human plasma using GP-BAN as fluorescent substrate preincubated for 5 mins followed by substrate addition and measured for 20 mins by microplate reader analysis; assay type: cell-free
Target sequence in this assay (P27487 whole entry): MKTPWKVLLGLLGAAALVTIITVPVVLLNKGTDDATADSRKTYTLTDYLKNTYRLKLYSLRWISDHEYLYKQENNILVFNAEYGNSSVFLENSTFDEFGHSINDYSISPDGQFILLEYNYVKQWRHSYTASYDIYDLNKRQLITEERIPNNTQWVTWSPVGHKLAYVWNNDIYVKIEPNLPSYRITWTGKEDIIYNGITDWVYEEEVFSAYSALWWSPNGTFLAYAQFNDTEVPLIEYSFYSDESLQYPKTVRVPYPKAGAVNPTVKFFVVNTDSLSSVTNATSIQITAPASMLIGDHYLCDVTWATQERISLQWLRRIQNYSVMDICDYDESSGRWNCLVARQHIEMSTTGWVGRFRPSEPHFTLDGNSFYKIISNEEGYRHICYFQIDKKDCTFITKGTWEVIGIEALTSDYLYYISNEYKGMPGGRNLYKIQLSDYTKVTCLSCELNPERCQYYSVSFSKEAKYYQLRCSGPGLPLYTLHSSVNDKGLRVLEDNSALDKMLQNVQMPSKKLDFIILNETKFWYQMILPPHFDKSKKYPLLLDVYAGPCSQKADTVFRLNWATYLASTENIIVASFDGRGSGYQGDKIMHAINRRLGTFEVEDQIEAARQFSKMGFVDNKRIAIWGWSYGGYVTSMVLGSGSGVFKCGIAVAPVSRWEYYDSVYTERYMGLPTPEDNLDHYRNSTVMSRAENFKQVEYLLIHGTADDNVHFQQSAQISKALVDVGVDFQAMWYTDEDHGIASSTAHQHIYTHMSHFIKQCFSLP

RAW264.7 [2] = test: Anti-inflammatory activity in mouse RAW264.7 cells assessed as downregulation of LPS-stimulated IL-6 mRNA expression at 20 to 100 uM preincubated for 4 hrs followed by LPS-stimulation for 24 hrs by qPCR analysis; assay type: functional, cell-based; details: dose 20-100 µM, time 28.0 hrs
RAW264.7 [3] = test: Cytotoxicity against mouse RAW264.7 cells assessed as cell growth inhibition incubated for 48 hrs by CCK-8 assay; assay type: toxicity, cell-based; details: raw264.7, 48 h
[4] = Metabolic stability in human liver microsomes assessed as UDPGA-dependent drug metabolism by measuring half life at 10 uM preincubated for 3 mins followed by UDPGA addition measured for 90 mins by LC-UV analysis; assay type: ADME, Microsome; details: time 93 min
Dipeptidyl peptidase 4 [5] = target: T1, Dipeptidyl peptidase 4; test: Mixed type inhibition of DPP4 (unknown origin) using varying concentrations of GP-BAN as substrate assessed as inhibition constant
Target sequence in this assay (P27487 whole entry): as above

RPTEC = test: Cytotoxicity against human RPTEC cells assessed as cell growth inhibition incubated for 48 hrs by CCK-8 assay; assay type: toxicity, cell-based
Dipeptidyl peptidase 4 [6] = target: T1, Dipeptidyl peptidase 4; test: Inhibition of DPP4 in human Caco-2 cells using GP-BAN as substrate assessed reduction of reduction in substrate hydrolysis at 20 uM incubated for 30 mins by Hoechst 33342 staining based assay; assay type: cell-based
Target sequence in this assay (P27487 whole entry, looked up): as the sequence (P27487 whole entry) above

RAW264.7 [7] = test: Anti-inflammatory activity in mouse RAW264.7 cells assessed as downregulation of LPS-stimulated TNF-alpha mRNA expression at 20 to 100 uM preincubated for 4 hrs followed by LPS-stimulation for 24 hrs by qPCR analysis; assay type: functional, cell-based; details: dose 20-100 µM, time 28.0 hrs
Dipeptidyl peptidase 4 [8] = target: T1, Dipeptidyl peptidase 4; test: Inhibition of DPP4 in human HepG2 cells using GP-BAN as substrate assessed reduction of reduction in substrate hydrolysis at 20 uM incubated for 30 mins by Hoechst 33342 staining based assay; assay type: cell-based
Target sequence in this assay (P27487 whole entry, looked up): as the sequence (P27487 whole entry) above

RAW264.7 [9] = test: Anti-inflammatory activity in mouse RAW264.7 cells assessed as downregulation of LPS-stimulated IL-1beta mRNA expression at 20 to 100 uM preincubated for 4 hrs followed by LPS-stimulation for 24 hrs by qPCR analysis; assay type: functional, cell-based; details: dose 20-100 µM, time 28.0 hrs

Compound | IC50 (Dipeptidyl peptidase 4 [1]) [µM] | Ki (Dipeptidyl peptidase 4 [5]) [µM] | other results
COc1ccc(C(=O)/C=C/c2cc(Br)c(O)cc2OC)cc1 | 34 |  | 
CCCOc1ccc(C(=O)/C=C/c2cc(Cl)c(O)cc2OC)cc1 | 11.4 |  | 
CCCCOc1ccc(C(=O)/C=C/c2cc(Cl)c(O)cc2OC)cc1 | 42.9 |  | 
COc1cc(O)c(Cl)cc1/C=C/C(=O)c1ccc(O)c(C)c1 | 15.1 |  | 
COc1cc(O)c(Cl)cc1/C=C/C(=O)c1ccc(O)cc1 | 7.16 | 6.57 | Activity (RAW264.7 [2]): Active; Activity (RAW264.7 [3]): Non-Toxic; half-life at 10 µM [4]: 7.1 min; Activity (RPTEC): Non-Toxic; inhibition (Dipeptidyl peptidase 4 [6]): Active; Activity (RAW264.7 [7]): Active; inhibition (Dipeptidyl peptidase 4 [8]): Active; Activity (RAW264.7 [9]): Active
C=CC(C)(C)c1cc(/C=C/C(=O)c2ccc(O)cc2)c(OC)cc1O [LICOAGROCHACONE A] | 30.4 |  | 
COc1cc(O)c(Cl)cc1/C=C/C(=O)c1cccc(O)c1 | 6.43 | 17.4 | 
O=c1c(O)c(-c2ccc(O)cc2)oc2cc(O)cc(O)c12 [KAEMPFEROL] | 6.67 | 14.4 | 
COc1cc(O)c(Cl)cc1/C=C/C(=O)c1ccc(Br)cc1 | 9.87 | 3.18 | 
CCOc1ccc(C(=O)/C=C/c2cc(Br)c(O)cc2OC)cc1 | 35 |  | 
N[C@@H](CC(=O)N1CCn2c(nnc2C(F)(F)F)C1)Cc1cc(F)c(F)cc1F |  |  | Activity (RAW264.7 [2]): Active; Activity (RAW264.7 [7]): Active; Activity (RAW264.7 [9]): Active
COc1cc(OC)c(/C=C/C(=O)c2ccc(O)cc2)cc1Cl | 49.2 |  | 
CCOc1ccc(C(=O)/C=C/c2cc(Cl)c(O)cc2OC)cc1 | 21.2 |  | 

From ChEMBL document CHEMBL5360591, “Licochalcone A Derivatives as Selective Dipeptidyl Peptidase 4 Inhibitors with Anti-Inflammatory Effects” (J Nat Prod, 2023)
